# Patent publication US20250092419A1, “SYNTHETIC TARGETERS OF UBIQUITINATION AND DEGRADATION (STUDS) AS EFFECTORS FOR FEEDBACK CONTROL IN MAMMALIAN CELLS” (The Regents of the University of California, priority 2022, published 2025)
# Where a SMILES comes first, the peptide text is derived from it. The star is where a group is joined. Cbz = O=C(OCc1ccccc1)*
# Key:
# [1] = test system: proteasomal and lysosomal degradation pathways; experiment: Inhibitor assays: rescue of GFP fluorescence in Jurkat T cells expressing STUD and GFP target; type: cell-based; conditions: 5 μM MG-132, 1 μM MLN4924 or 100 nM Bafilomycin A1; 37 C for 5 hours; cells expressing functional STUD and GFP target
# Method: 72 hours after removal of lentivirus, the Jurkat T cells and an untransduced control cell line were treated with either 5 μM of the proteasomal inhibitor MG-132, 1 μM of the cullin ring ligase inhibitor MLN4924, 100 nM of the lysosomal inhibitor Bafilomycin A1, or DMSO vehicle control and incubate at 37 C for 5 hours. Using flow cytometry to measure GFP fluorescence following treatment, it was observed that GFP fluorescence can indeed be rescued with MG-132 and MLN4924 when cells express both a functional STUD and a GFP target relative to DMSO vehicle control.
# Inhibitor Assays: 100,000 cells were plated in a 96 well round bottom plate with either 5 μM MG-132 (Sigma-Aldrich #M7449-200UL), 1 μM MLN4924 (Active Biochem #A-1139), 100 nM Bafilomycin A1 (Enzo Life Sciences #BML-CM110-0100), or DMSO vehicle control and incubated at 37 C for 5 hours. After incubation, cells were pelleted by centrifugation at 400×g for 4 minutes. Supernatant was then removed and cells were washed once with 200 μL PBS. Cells were pelleted again (400×g for 4 minutes) and resuspended in flow buffer (PBS+2% FBS) for assay by flow cytometry.
# NALM6 target cells = experiment: MLN dose response: ON switch CAR, lysis of NALM6 target cells by CD8+ primary human T cells; type: cell-based; conditions: MLN4924 1 μM to 0.015625 μM; 72 hours at 37 C; antiCD19BBz CAR fused to SynZip plus memSTUD
# Method: CD8+ primary human T cells were engineered with an antiCD19BBz CAR fused to a SynZip and a memSTUD that binds the SynZip using the same plasmids outlined in FIG. 14A by lentiviral transduction. As a control, CD8+ primary human T cells were lentivirally transduced with an antiCD19BBz and a SynZip memSTUD which cannot bind the CAR. These engineered cells and an untransduced control were cocultured with NALM6 target cells for 72 hours at 37 C in the presence of MLN4924 ranging from 1 μM to 0.015625 μM and a DMSO vehicle control. After coculture, target cell lysis was assayed by flow cytometry. Specific target cell lysis of each cell line relative to NALM6 cells cultured alone in the same conditions was then calculated.
# Co-culture assays: For all assays, T cells and target cells were co-cultured at a 1:1 ratio with cell numbers varying per assay. All assays contained between 10,000 and 50,000 of each cell type. The Countess II Cell Counter (ThermoFisher) was used to determine cell counts for all assays set up. T cells and target cells were mixed in 96-well round bottom tissue culture plates in 200 μL T cell media, and then plates were centrifuged for 1 min at 400×g to initiate interaction of the cells prior to incubation at 37 C.
# MLN dose response: 25,000 CD8+ primary human T cells were seeded into 96 well round bottom plates in 100 μL fresh media. […]
# cullin ring ligase = experiment: MLN4924 rescue of STUD knockdown of CD19BBz CAR expression in CD8+ primary T cells; type: cell-based, human; conditions: 1 μM MLN4924 for 5 hours at 37 C; CD19BBz CAR with STUD
# GFP-SZ17 [GFP: P42212] = experiment: cell-based or functional assay
# CAR-SZ17 fusion = experiment: Degradation of CAR-SZ17 fusion in Jurkat cells; type: cell-based; conditions: degron directly fused to the CAR
# Method: The ability of the STUD to degrade a CAR in Jurkat cells was tested by generating a CAR construct with SynZIP17 fused to its C-terminus. However, while these STUDs worked to some extent, none of them were able to completely knockdown CAR expression (see FIG. 8).
# proteasome = experiment: MG132 proteasome inhibitor treatment of primary human CD4+ T cells expressing GFP nanobody STUD; type: cell-based; conditions: 5 uM MG132, three hours; cells expressing functional nanobody STUD (nanobody(K->R)+Bonger) only
# Method: The mechanism of how the STUD reduces GFP was explored. Primary human CD4+ T cells expressing the GFP nanobody STUD were fed with the MG132 proteasome inhibitor and the change in fluorescence was measured over time. Cells expressing a functional STUD should display an increase in fluorescence over time as the proteasome inhibitor took effect.
# Using proteasome inhibitor to explore cytosolic GFP mechanism: To ascertain the mechanism by which the STUD degrades cytosolic GFP, the cells were inoculated with 5 uM of the proteasome inhibitor MG132 for 1 and 3 hours. Cells were then washed with PBS and analyzed by flow cytometry. Using the same 2-plasmid system as described above, changes in GFP fluorescence relative to controls were measured.
molecule,measurement,setting,value
NS(=O)(=O)OC[C@@H]1C[C@@H](n2ccc3c(N[C@H]4CCc5ccccc54)ncnc32)C[C@@H]1O [MLN4924],GFP fluorescence relative to DMSO vehicle control,[1],rescued
same,specific target cell lysis,NALM6 target cells,dose dependent
same,CAR expression (CAR fluorescence by antibody stain),cullin ring ligase,rescue STUD knockdown of CAR expression
SynZIP18(K->R)-5xGS-RRRG (designed binder),"median normalized GFP fluorescence (flow cytometry, Jurkat T cells), fold change",GFP-SZ17 [GFP: P42212],42 fold
CO/C1=C\C(C)=C\[C@@H](C)[C@@H](O)[C@@H](C)C/C(C)=C/C=C/[C@H](OC)[C@@H]([C@@H](C)[C@@H](O)[C@H](C)[C@@]2(O)C[C@@H](O)[C@H](C)[C@@H](C(C)C)O2)OC1=O [Bafilomycin A1],GFP fluorescence relative to DMSO vehicle control,[1],No changes to GFP fluorescence
Arg-Arg-Arg-Gly (RRRG) [Bonger degron],reduction of CAR expression,CAR-SZ17 fusion,over 90%
CC(C)C[C@@H](C=O)NC(=O)[C@H](CC(C)C)NC(=O)[C@H](CC(C)C)NC(=O)OCc1ccccc1 [MG-132] (Cbz-Leu-Leu-Leu-aldehyde),GFP fluorescence relative to DMSO vehicle control,[1],rescued
same,change in GFP fluorescence over time,proteasome,increase in GFP fluorescence
